Test results taken from paper PMC3621174, “A cell based high-throughput screening approach for the discovery of new inhibitors of respiratory syncytial virus” (Virology Journal, 2013).
Read-outs that look alike come from different tables or passages of the source.

Experiments:
RSV strain Long = test: Plaque reduction assay in HEp-2 cells; assay type: cell-based, Human respiratory syncytial virus; conditions: 25 μM test compound, MOI 0.1, HEp-2
Experimental: These compounds were evaluated for their ability to reduce the amount of infectious virus produced in cell culture. HEp-2 cells were infected with hRSV in the presence of 25 μM test compound. Media supernatants were removed and 10-fold serial-diluted onto a confluent field of uninfected, untreated HEp-2 cells, bound, washed, and overlaid with agarose. After six days, plaques were fixed, stained, and counted to determine the amount of infectious virus in the original, drugged supernatants (Figure 8).
Figure 8 Plaque reduction assay in HEp-2 cells. RSV strain Long was assayed for its sensitivity to five compounds. Supernatants were harvested from test (25 μM) or control compound (35 μM) treated RSV-infected HEp-2 cells at a multiplicity of infection (MOI) of 0.1. Serial dilutions of the supernatants were added to monolayers of HEp-2 cells in 24-well plates. Cells were fixed after 6 days and stained with neutral red. Plaque reduction assays were performed in triplicate per compound. CC, uninfected cell control; VC, untreated virus-infected control. The concentration of DMSO in each assay well, including all control wells was 0.5%.
Compounds or carrier control (DMSO) were diluted in Complete DMEM/F12 and 2 mL per well was dispensed to 6-well assay plates (final plate well concentration was 25 μM, ribavirin; 35 μM and final DMSO concentration 0.5%). […]

hRSV (strain Long) [1] = test system: hRSV (strain Long); set-up: method as in PMID 14638398; conditions: previously reported value; cited from earlier work
[2] = Cytotoxicity dose response in HEp-2 cells (Cell Titer Glo); assay type: cell-based; conditions: human, HEp-2, 8 point dose response, duplicate
Experimental: (§1) Figure 3 Dose response of ribavirin. HEp-2 cells were plated in 384-well black tissue culture plates at 2,000 cells per well. Ribavirin or carrier control (DMSO) were diluted to 6x in Complete DMEM/F12 and serially diluted 1:2 resulting in an 8 point dose response dilution series. (final plate well concentration ranging from 50 uM to 0.39 uM and a final DMSO concentration of 0.5%). For dose response screening, cells were infected with a 1:500 dilution of virus (viral MOI = 0.5). The assay plates were incubated for six days at 37°C, 5% CO2 and 90% relative humidity and the inhibitory effects of the drug were assessed using Cell Titer Glo. […]
(§2) Following the six day incubation period, the assay plates were equilibrated to room temperature for 30 min. […] At the end of the incubation, luminescence was measured using a multi-label reader (Envision, PerkinElmer, Wellesley, MA) with an integration time of 0.1 s.
(§3) HTS data were analyzed using ActivityBase software (IDBS, Inc., Guildford, UK). Antiviral activity is described as percent CPE inhibition = 100*((luminescence compound well minus median luminescence virus control)/ (median luminescence cell control minus median luminescence virus control)). Percent viability = 100 * luminescence compound well/median luminescence cell control. […] Two dose-response curves were calculated for each substance. […] The selective index (SI) was calculated as SI = CC50/EC50. […]

hRSV (strain Long) [3] = test: 384-well CPE inhibition assay, hRSV-infected HEp-2 cells, Cell Titer Glo endpoint; assay type: cell-based; conditions: human respiratory syncytial virus, 144 h; HEp-2, virus MOI = 0.5, 8 point dose response 50-0.39 uM, 6 days, triplicate; read-out: EC50 (efficacy)
Experimental: as §1, §2, §3

Structure (SMILES) | reduction in virus titer (pfu/mL) from control (RSV strain Long) | EC50 (hRSV (strain Long) [1]) | CC50 at 6 days [2] | EC50 (hRSV (strain Long) [3])
O=C(O)C1CC=CCC1C(=O)Nc1ccc(S(=O)(=O)N2CCCc3ccccc32)cc1 (centres unmarked) [SID 93616804] | 6.5 log | – | – | –
COc1ccccc1CNC(=O)C1CCN(S(=O)(=O)c2cccc3nonc23)CC1 [compound 93616803] | 4 log | – | – | –
NC(=O)c1ncn([C@@H]2O[C@H](CO)[C@@H](O)[C@H]2O)n1 [ribavirin] | – | 41 µM | ~75 µM | ~40 µM
